{
  "source": "patent US11433036B2",
  "about": "“Oxprenolol compositions for treating cancer” (priority 2013, dated 2022)",
  "key": {"[1]": {"system": "Yoshida Hepatoma Model", "excerpt": "(§1) Ascites hepatoma Yoshida AH-130 cells (10^3 cells) were inoculated into about 200 gram male Wistar rats by i.p. injection. Alternatively animals received saline injection only (sham). The day after inoculation animals were randomized into various groups and then received twice daily treatment with either placebo or various test compositions by oral gavage over a period of up to 17 days. The primary endpoints of the study included assessment of body weight, body composition (with and without tumor), and survival. Body composition was monitored by NMR. Echocardiography was used in instances to monitor condition of the heart. Organ weight was assessed at the end of the study (or after death) as a secondary endpoint. In addition, locomotor activity and food intake were also assessed. FIG. 1 provides a diagram showing the design study. R- and S-oxprenolol were manufactured to order by Peakdale Molecular, Peakdale Science Park, Sheffield Road. Chapel-en-le-Frith, High Peak SK23 0PG, UK\nTo study the effect of the test compounds on fat mass, the fat mass were determined at the end of the study.\nTo study the effect of the test compounds as mixtures of enantiomers on fat mass, the fat mass were determined at the end of the study."}, "[2]": {"system": "Yoshida Hepatoma Model", "conditions": "5, 12.5, 25 or 50 mg/kg/day vs placebo; end of study; FIGS. 19A and 19B", "excerpt": "as §1\nTo study the effect of the test compounds on tumor growth, tumor growth was assessed at the end of the study."}, "[3]": {"system": "Yoshida Hepatoma Model", "conditions": "Day 11; for food intake: FIG. 17; for locomotor activity: FIG. 18", "excerpt": "as §1\nTo study the effect of the test compounds on quality of life, parameters of quality of life such as food intake and locomotor activity were assessed at Day 11."}, "[4]": {"system": "Yoshida Hepatoma Model", "conditions": "5, 12.5, 25 or 50 mg/kg/day; end of study; FIGS. 13A-13D", "excerpt": "as §1\nTo study the effect of the test compounds on skeletal muscle atrophy and heart weight, the skeletal muscle mass and heart weight were determined at the end of the study."}, "[5]": {"system": "Yoshida Hepatoma Model", "test": "Survival in Yoshida hepatoma model", "assay_type": "in vivo, male Wistar rats", "excerpt": "as §1\nTo study the effect of S-oxprenolol and R-oxprenolol on survival, survival was monitored over time."}, "[6]": {"system": "Kelly (neuroblastoma)", "conditions": "Kelly cells; BrdU incorporation and XTT assay; FIG. 20", "description": "(§2) The effect of the test compounds on tumor growth was also evaluated in an in vitro experiment with various tumor cells, namely, Kelly (neuroblastoma), Hela-93 (cervix carcinoma), and B16V (melanoma). Cell growth was assessed by BrdU incorporation (left of FIG. 20) and XTT assay (right of FIG. 20). Doxorubicin was used as a positive control."}, "[7]": {"system": "Hela-93 (cervix carcinoma)", "conditions": "Hela-93 cells; BrdU incorporation and XTT assay; FIG. 20", "description": "as §2"}, "[8]": {"system": "B16V (melanoma)", "conditions": "B16V cells; BrdU incorporation and XTT assay; FIG. 20", "description": "as §2"}, "[9]": {"system": "Yoshida Hepatoma Model", "excerpt": "as §1\nTo study the effect of the test compounds on lean body mass, lean mass was determined at the end of the study.\nTo study the effect of the test compounds as mixtures of enantiomers on lean body mass, lean mass was determined at the end of the study.", "remark": "listed apart in the source"}, "[10]": {"system": "Yoshida Hepatoma Model", "excerpt": "as §1\nTo study the effect of the test compounds on body weight, body weight was monitored over time.\nTo study the effect of the test compounds as mixtures of enantiomers on body weight, body weight was monitored over time.", "remark": "listed apart in the source"}, "[11]": {"conditions": "5 mg/kg/day or 25 mg/kg/day vs placebo"}, "[12]": {"conditions": "25 mg/kg/day S-oxprenolol vs same amount of R-oxprenolol"}},
  "note": "Entries after “also recorded” stand apart in the source; their conditions may differ. Like-named read-outs stand apart in the source and are kept apart here.",
  "data": [
    {"molecule": "C=CCOc1ccccc1OC[C@@H](O)CNC(C)C", "note": "[S-oxprenolol, (S)-(−)-oxprenolol]", "values": [
      {"measurement": "change in fat mass", "setting": "[1]; 5, 12.5, 25 or 50 mg/kg/day, FIG. 14", "value": "rats receiving S-oxprenolol at 12.5 mg/kg/day or higher had less fat mass loss than those in the placebo group or those receiving R-oxprenolol"},
      {"measurement": "weight of white adipose tissue (WAT)", "setting": "[1]; 5, 12.5, 25 or 50 mg/kg/day, FIG. 15A", "value": "better effects in reducing fat wasting than R-oxprenolol"},
      {"measurement": "weight of brown adipose tissue (BAT)", "setting": "[1]; 5, 12.5, 25 or 50 mg/kg/day, FIG. 15B", "value": "both enantiomers of oxprenolol protect BAT mass"},
      {"measurement": "weight of white adipose tissue (WAT)", "setting": "[1]; S-oxprenolol 20 mg/kg/day vs racemic mixture 40 mg/kg/day, FIG. 16A", "value": "significantly better effect in preserving the white adipose tissue than those receiving the racemic mixture"},
      {"measurement": "weight of brown adipose tissue (BAT)", "setting": "[1]; S-oxprenolol 20 mg/kg/day vs racemic mixture 40 mg/kg/day, FIG. 16B", "value": "better effect in preserving the brown adipose tissue than those receiving the racemic mixture"},
      {"measurement": "tumor growth (tumor volume, total number of cells in a tumor)", "setting": "[2]", "value": "did not have any significant effects on tumor growth compared to those in the placebo group"},
      {"measurement": "food intake", "setting": "[3]; [11]", "value": "higher food intake than those in the placebo group"},
      {"measurement": "locomotor activity", "setting": "[3]; [11]", "value": "higher locomotive activity than those in the placebo group"},
      {"measurement": "food intake", "setting": "[3]; [12]", "value": "higher food intake than those receiving the same amount of R-oxprenolol"},
      {"measurement": "locomotor activity", "setting": "[3]; [12]", "value": "higher locomotive activity than those receiving the same amount of R-oxprenolol"},
      {"measurement": "mass of skeletal muscle (gastrocnemius, tibialis anterior, soleus, EDL)", "setting": "[4]", "value": "reduces wasting of individual hind limb muscles independent of their composition of slow and fast twitch muscle fibers"},
      {"measurement": "percent survival", "setting": "[5]; 25 mg/kg/day or 50 mg/kg/day, oral gavage twice daily, up to 17 days, FIG. 2", "value": "longer survival than those in the placeo group or those receiving R-oxprenolol"},
      {"measurement": "percent survival", "setting": "[5]; S-oxprenolol 20 mg/kg/day vs racemic mixture 40 mg/kg/day (same amount of S-oxprenolol), FIG. 3", "value": "longer survival than those receiving the racemic mixture; also recorded: had an improved effect on survival than the racemic mixture"},
      {"measurement": "percent survival, comparison of dosages", "setting": "[5]; S-oxprenolol 5, 12.5, 25, 50, 70 or 100 mg/kg/day, FIGS. 4 and 5", "value": "50 mg/kg/day S-oxprenolol had the best effect on survival among all dosages tested"},
      {"measurement": "percent survival", "setting": "[5]; S-oxprenolol vs placebo or S-pindolol 3 mg/kg/day, FIG. 4", "value": "significantly superior to either placebo or S-pindolol at its preferred dose"},
      {"measurement": "survival", "setting": "[5]; animal inoculated with hepatocellular carcinoma cells, summary statement", "value": "significantly improved survival in animals having cancer"},
      {"measurement": "tumor cell proliferation", "setting": "[6]", "value": "neither S-oxprenolol nor R-oxprenolol showed any inhibitor effects on tumor cell proliferation"},
      {"measurement": "tumor cell proliferation", "setting": "[7]", "value": "neither S-oxprenolol nor R-oxprenolol showed any inhibitor effects on tumor cell proliferation"},
      {"measurement": "tumor cell proliferation", "setting": "[8]", "value": "neither S-oxprenolol nor R-oxprenolol showed any inhibitor effects on tumor cell proliferation"},
      {"measurement": "change in lean body mass", "setting": "[9]; 5, 12.5, 25 or 50 mg/kg/day, FIG. 10", "value": "rats receiving S-oxprenolol at doses of 12.5 mg/kg/day or higher had less change in lean body mass than those receiving R-oxprenolol"},
      {"measurement": "change in lean body mass", "setting": "[9]; S-oxprenolol 20 mg/kg/day vs racemic mixture 40 mg/kg/day, FIG. 11A", "value": "less change in lean body weight than those receiving the racemic mixture"},
      {"measurement": "change in lean body mass/days alive", "setting": "[9]; S-oxprenolol 20 mg/kg/day vs racemic mixture 40 mg/kg/day, FIG. 11B", "value": "less change in lean body mass than those receiving the racemic mixture"},
      {"measurement": "change in lean body mass, comparison of dosages", "setting": "[9]; S-oxprenolol 12.5, 25, 50, 70 or 100 mg/kg/day, FIG. 12A", "value": "rats receiving 100 mg/kg/day of S-oxprenolol had the least change in lean body mass compared to rats receiving other doses"},
      {"measurement": "change in lean body mass/days alive, comparison of dosages", "setting": "[9]; S-oxprenolol 12.5, 25, 50, 70 or 100 mg/kg/day, FIG. 12B", "value": "rats receiving 100 mg/kg/day of S-oxprenolol had the least change in lean body mass/days alive compared to rats receiving other doses"},
      {"measurement": "change of body weight", "setting": "[10]; 5, 12.5, 25 or 50 mg/kg/day, FIG. 7", "value": "less body weight loss than those in the placebo group and those administered with R-oxprenolol"},
      {"measurement": "change in body weight", "setting": "[10]; S-oxprenolol 20 mg/kg/day vs racemic mixture 40 mg/kg/day, FIG. 8", "value": "less body weight loss than those receiving the racemic mixture"},
      {"measurement": "change in body weight, comparison of dosages", "setting": "[10]; S-oxprenolol 12.5, 25, 50, 70 or 100 mg/kg/day, FIG. 9", "value": "rats receiving 50 mg/kg/day or 100 mg/kg/day of the S-oxprenolol had the least body weight loss"}
    ]}
  ]
}
